Assay results from patent US8084596B2, “Regulated apoptosis” (The Board of Trustees of the Leland Stanford Junior …, priority 1993, dated 2011).

Molecular target: T1, myristoylated Fas-FKBP12 fusion protein (MFF3E) (Homo sapiens, UniProt P25445)
T1 construct: expressed in transfected cells; host or cells: Jurkat T cells stably transformed with large T-antigen, transient transfection
Type: cell-based

T1 sequence (P25445 with tags, fused parts or gaps): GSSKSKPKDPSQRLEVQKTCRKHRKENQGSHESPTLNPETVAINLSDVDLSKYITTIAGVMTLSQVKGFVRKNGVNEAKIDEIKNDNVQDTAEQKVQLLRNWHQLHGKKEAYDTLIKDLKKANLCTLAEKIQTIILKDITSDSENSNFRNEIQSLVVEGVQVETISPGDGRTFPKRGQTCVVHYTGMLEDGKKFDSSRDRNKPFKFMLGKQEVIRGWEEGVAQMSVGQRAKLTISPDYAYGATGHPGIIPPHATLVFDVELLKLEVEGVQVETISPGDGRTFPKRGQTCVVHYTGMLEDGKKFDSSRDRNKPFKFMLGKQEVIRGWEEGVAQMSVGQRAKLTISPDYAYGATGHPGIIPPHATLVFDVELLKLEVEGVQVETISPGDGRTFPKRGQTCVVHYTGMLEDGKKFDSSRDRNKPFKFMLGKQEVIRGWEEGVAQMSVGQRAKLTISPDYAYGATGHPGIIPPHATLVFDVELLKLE

## FK1012-A (p-xylylenediamine bridge) [FK1012A]
  LD50 for mediated death of cells: 15 nM
